Reference: EP4755396A1, “TREATMENT OF P53 GENE MUTATION OR DEFECT NEGATIVE CANCER AND TUMOR PATIENTS” (Ascentawits Pharmaceuticals, Ltd., priority 2023, dated 2025)
Like-named read-outs stand apart in the source and are kept apart here. Peptide text beside a SMILES is read from it. * marks the point of attachment. Cbz = O=C(OCc1ccccc1)*

Legend:
H460 P53 KO #1 = assay: In vitro cell proliferation inhibition under normoxia, p53 knockout cells; assay type: cell-based, human
Experimental: The p53 CRISPR/Cas9 KO plasmid (human) and p53 HDR plasmid (human) were purchased from Santa Cruz Company to construct H460 P53 KO cell lines, namely p53 knockout (KnockOut) H460 cell lines. Three groups of H460 P53 KO cell lines were constructed with numbers of H460 P53 KO # 1, H460 P53 KO # 7, and H460 P53 KO # 12.
After co-incubation for 15 minutes, they were added dropwise to the culture medium and mixed well.
After 48 h, 2 µg/mL puromycin was added for screening.
When the cell colonies grew to a sufficient size, single colonies were picked and cultured.
When the cell number reached a sufficient quantity, samples were collected for WB identification of the colonies.
H460 P53 KO cell lines, i.e. H460 P53 KO # 1, H460 P53 KO # 7, H460 P53 KO # 12 cell lines were used in experiments, respectively.
(§1) • 1) NCI-H460, NCI-H460 P53KO # 1 cell suspensions were added to a 96-well plate at 100 µL per well, with a cell density of 2000 /well. • 2) The cells were cultured overnight in an incubator at 37°C, 5% CO2. • 3) Compound Treatment
(§2) Monotherapy: After 24 hours of cell plating, 99.5 µL of growth medium was supplied to each well. Then each well was added with 0.5µL of test compounds at different concentrations, shaken gently to ensure even mixing, and then placed at 37°C, 5% CO2 in an incubator.
(§3) Combination therapy: After 24 hours of cell plating, 99 µL of medium was supplied to each well. Each well was added with 0.5µL of combined action compound, shaken gently to ensure even mixing, and then placed in an incubator for 2 hours. Then each well was added with 0.5µL of test compounds at different concentrations, shaken gently to ensure even mixing, and then placed at 37°C, 5% CO2 in an incubator.
(§4) 4) The cell plate was placed in the incubator for 72 hours.
(§5) 5) The cell plate to be tested was placed at room temperature to equilibrium for 30 minutes, and 100µL of medium was discarded per well.
(§6) 6) 25µL of CTG reagent was added to each well, placed at a fast shaker to shake for 2 minutes, and placed at room temperature away from light for 30 minutes.
(§7) 7) The chemiluminescence signal value was read using a multifunctional microplate reader with a reading time of 1000 ms.
(§8) 8) The ICso (half maximal inhibitory concentration) values were calculated using GraphPad Prism 5 software.

H460 cells = assay: In vitro cell proliferation inhibition under normoxia (96-well, CTG, 72 hours); assay type: cell-based, human; conditions: for inhibition at 0.025 µM / inhibition at 0.05 µM: NCI-H460, H460 cells; for inhibition at 0.025 µM: RITA 0.025 µM; for inhibition at 0.05 µM: RITA 0.05 µM
Experimental: Overview of the experimental process • 1) H460 cell suspension was added to a 96-well plate at 100 µL per well, with a cell density of 2000 /well. • 2) The cells were cultured overnight in an incubator at 37°C, 5% CO2. • 3) Compound Treatment
Monotherapy: After 24 hours of cell plating, each well was supplied with 99.5 µL of growth medium then added with 0.5µL of test compounds at different concentrations, shaken gently to ensure even mixing, and then placed at 37°C, 5% CO2 in an incubator.
Combination therapy: After 24 hours of cell plating, each well was supplied with 99 µL of growth medium then added with 0.5µL of the combined action compound Nutlin-3, shaken gently to ensure even mixing, and then placed in an incubator for 2 hours. Then each well was added with 0.5µL of test compounds at different concentrations, shaken gently to ensure even mixing, and then placed at 37°C, 5% CO2 in an incubator.
as §4, §5, §6, §7
8) IC50 was calculated with Graph Pad Prism 5 software.
(§9) • 1) H460 and HPAF-II cell suspensions were added to a 96-well plate at 100 µL per well, with a cell density of 2000 /well and 20000/well, respectively. • 2) The cells were cultured overnight in an incubator at 37°C, 5% CO2. • 3) Compound Treatment
(§10) Combination therapy: After 24 hours of cell plating, 99 µL of growth medium was supplied to each well. Each well was added with 0.5 µL of Nutlin-3 or RITA, shaken gently to ensure even mixing, and then placed in an incubator for 2 hours. Then each well was added with 0.5µL of test compounds at different concentrations, shaken gently to ensure even mixing, and then placed at 37°C, 5% CO2 in an incubator.
as §2
(§11) 7) The chemiluminescence signal value was read using a multifunctional microplate reader with a reading time of 1000 ms. The corresponding inhibition rate data were calculated.
as §1, §3, §8

[1] = system: RAD51 protein in H460 cells; assay: WB detection of RAD51 protein amount, degradation and half-life; assay type: cell-based; conditions: 0.1-1 nM AST-3424, 5 µM Nutlin-3, 5 µM MG-132, 24 hours (Figures 14-17)
Experimental: In the first, the second and the third experiments of the effect of AST-3424 in combination with Nutlin-3 on Ser15-p53, Ser20-p53, Total p53, MDM2 and p21 proteins in H460 cells in example 5, the applicant also performed WB detection of RAD51 protein, with the results shown in Figures 14, 15 and 16.
• 1) H460 cell suspension was added to a 24-well plate, with a cell density of 100000 /well and 995 µL of medium per well. • 2) The cells were cultured overnight in an incubator at 37°C, 5% CO2. • 3) Compound Treatment
Monotherapy: After 24 hours of cell plating, each well was supplied with 5µL of test compounds at different concentrations: 1% DMSO, 0.1nM AST-3424 and 5 µM Nutlin-3, shaken gently to ensure even mixing, and then placed at 37°C, 5% CO2 in an incubator. After continuing culture for 24 hours, the cells were collected.
Combination therapy: After 24 hours of cell plating, • Adding 0.1 nM AST-3424 for pre-treatment for 2 hours, and then adding 5 µM Nutlin-3 for co-treatment for 22 hours; • Adding 1% DMSO and 5 µM MG-132 for co-treatment for 24 hours; • Adding 0.1 nM AST-3424 and 5 µM MG-132 for co-treatment for 24 hours; • Adding 5 µM Nutlin-3 and 5 µM MG-132 for co-treatment for 24 hours; • Adding 0.1 nM AST-3424 for pre-treatment for 2 hour, and then adding 5 µM Nutlin-3 for treatment for 16 hours, and then adding 5µM MG-132 for co-treatment for 6 hours. […]

HPAF-II cells = assay: In vitro cell proliferation inhibition (96-well, CTG, 72 hours); assay type: cell-based; conditions: Homo sapiens, HPAF-II cells, 72 hours; for inhibition at 2.5 µM: RITA 2.5 µM; for inhibition at 5 µM: RITA 5 µM
Experimental: as §9, §10, §2, §4, §5, §6, §11

Compound: CN(C)C(=O)c1cccc(Oc2cc3c(cc2[N+](=O)[O-])OCCC3OP(=O)(N2CC2)N2CC2)c1 (centres unmarked) [Compound C]
- IC50 (H460 P53 KO #1; Homo sapiens, NCI-H460, 72 h, NCI-H460 P53KO # 1, normoxia, 72 hours, alone or with 3 µM AST-3021 as labelled (Example 13)): 36.1 nM
- Ratio, combination therapy/ monotherapy (H460 P53 KO #1; IC50 ratio, NCI-H460 P53KO # 1, + 3 µM AST-3021 versus alone (Example 13)): 43.24
- Ratio, Compound C/AST-3424 (H460 P53 KO #1; IC50 ratio, NCI-H460 P53KO # 1, monotherapy): 6.62
- Ratio, knockout / wild (H460 P53 KO #1; IC50 ratio, NCI-H460 P53KO # 1 versus NCI-H460, monotherapy (Example 13)): 17.60
- IC50 (H460 cells; Homo sapiens, NCI-H460, 72 h, NCI-H460, normoxia, 72 hours, alone or with 3 µM AST-3021 as labelled (Example 13)): 2.05 nM
- Ratio, combination therapy/ monotherapy (H460 cells; IC50 ratio, NCI-H460, + 3 µM AST-3021 versus alone (Example 13)): 305.37
- Ratio, Compound C/AST-3424 (H460 cells; IC50 ratio, NCI-H460, monotherapy): 4.77

Compound: CC(C)C[C@@H](C=O)NC(=O)[C@H](CC(C)C)NC(=O)[C@H](CC(C)C)NC(=O)OCc1ccccc1 [MG-132] (Cbz-Leu-Leu-Leu-aldehyde)
- RAD51 protein amount (WB) [1]: reversed the downregulation of RAD51 protein

Compound: OCc1ccc(-c2ccc(-c3ccc(CO)s3)o2)s1 [RITA]
- inhibition at 0.025 µM (H460 cells; Homo sapiens, 72 hours, AST 0.5 nM, AST + RITA 0.5+0.025, read-out: Inhibition rate result, experimental group 1): 22.3%
- inhibition at 0.05 µM (H460 cells; Homo sapiens, 72 hours, AST 0.5 nM, AST + RITA 0.5+0.05, read-out: Inhibition rate result, experimental group 2): 22.4%
- inhibition at 0.025 µM (H460 cells; Homo sapiens, 72 hours, AST 1.5 nM, AST + RITA 1.5+0.025, read-out: Inhibition rate result, experimental group 3): 22.3%
- inhibition at 0.05 µM (H460 cells; Homo sapiens, 72 hours, AST 1.5 nM, AST + RITA 1.5+0.05, read-out: Inhibition rate result, experimental group 4): 22.4%
- inhibition at 2.5 µM (HPAF-II cells; AST 60 nM, AST + RITA 60+2.5, read-out: Inhibition rate, experimental group 1): 2.86%
- inhibition at 5 µM (HPAF-II cells; AST 60 nM, AST + RITA 60+5, read-out: Inhibition rate, experimental group 2): 5.56%
- inhibition at 2.5 µM (HPAF-II cells; AST 200 nM, AST + RITA 200+2.5, read-out: Inhibition rate, experimental group 3): 2.86%
- inhibition at 5 µM (HPAF-II cells; AST 200 nM, AST + RITA 200+5, read-out: Inhibition rate, experimental group 4): 5.56%
- inhibition at 2.5 µM (HPAF-II cells; AST 1667 nM, AST + RITA 1667+2.5, read-out: Inhibition rate, experimental group 5): 2.86%
- inhibition at 5 µM (HPAF-II cells; AST 1667 nM, AST + RITA 1667+5, read-out: Inhibition rate, experimental group 6): 5.56%
- inhibition at 2.5 µM (HPAF-II cells; AST 5000 nM, AST + RITA 5000+2.5, read-out: Inhibition rate, experimental group 7): 2.86%
- inhibition at 5 µM (HPAF-II cells; AST 5000 nM, AST + RITA 5000+5, read-out: Inhibition rate, experimental group 8): 5.56%
